The record followed here is article PMC9994261 (Cell, 2023).

One data set concerns Mtb ribosome. The format is biochemical, Mycobacterium tuberculosis.
The test system of the next data set is Mtb methylated ribosome. Kind of data set: Mtb in vitro translation assay with methylated (erythromycin-treated) ribosome. The format is biochemical, Mycobacterium tuberculosis.
Data set [1] relates to Mtb H37Rv. Kind of data set: Combination study in mouse model of TB. Type of data set: in vivo. The following applies: mouse, in vivo.
Data set [2] has as its system Mtb H37Rv. Description: microbe, parasite or virus in culture. The following applies: Mycobacterium tuberculosis, H37RV; read-out: MIC for Mtb in liquid culture. Type of data set: cell-based, Mycobacterium tuberculosis.
In a further data set the test system is M. bovis BCG Pasteur. Description: microbe, parasite or virus in culture. The format is cell-based, Mycobacterium bovis.
For data set [3], the system named is Mtb H37Rv. Description: MIC80 after overnight pre-incubation of Mtb with subinhibitory macrolide. Type of data set: cell-based. The following applies: Mycobacterium tuberculosis.
The test system of data set [4] is GFP-expressing Mtb H37Rv in RAW264.7 macrophages. Description: Intramacrophage assay (MIC for Mtb in macrophages). Type of data set: cell-based, Mycobacterium tuberculosis. The following applies: Mycobacterium tuberculosis, H37RV; read-out: MIC for Mtb tuberculosis in macrophages.
The format of data set [5] is in vitro ADME, human. As for the experimental part:
The metabolic stability of test compounds was determined as described.[57]^,[58] Incubation and experimental conditions with human hepatic microsomal fractions (purchased from BD Gentest as a pooled batch from 6 donors) were as follows: microsomal proteins, 1 mg/mL; bovine serum albumin, 1 mg/mL; substrate, 5 μM; incubation duration, 20 min; cytochrome P-450 monooxygenases (CYPs) and flavin containing monooxygenases (FMOs) cofactor, 1 mM NADPH. Enzyme activity was stopped with 1 volume of acetonitrile. […] For each test compound and for each microsomal preparation, three incubations were prepared: absolute reference in buffer (without enzyme material, i.e., microsomes); incubation without NADPH cofactor (with microsomal fractions); and incubation with NADPH (with microsomal fractions). For most compounds, biotransformation, as observed in hepatic microsomal fractions in the presence of the NADPH cofactor, consists of oxidative reactions catalyzed by either CYPs or FMOs. In these conditions, the percentage of total metabolism, which corresponds to oxidative metabolism, was determined as follows: [% total metabolism] ≈ [% oxidative metabolism] = [unchanged compound (UC) peak area − NADPH UC peak area + NADPH] × 100%, where NADPH corresponds to the enzyme cofactor for oxidation reactions catalyzed by either CYP or FMO.

Data set [6] is classed as in vitro ADME.
Another data set addresses T1, CYP3A4 (Homo sapiens, UniProt P08684).
T1 construct: human liver microsomes (purchased from BD Gentest as a pooled batch from 150 donors); tissue BD Gentest Cat#452117; host or cells: pooled human liver microsomes (150 donors)
Kind of data set: CYP3A4 reversible inhibition in human liver microsomes. The format is in vitro ADME. The following applies: substrate not stated; read-out: CYP3A4 inhibition. Here is the method: Incubations were performed with 0.1 mg/mL human liver microsomes (purchased from BD Gentest as a pooled batch from 150 donors) in a final incubation volume of 0.25 mL. The incubation medium contained 0.05 M phosphate buffer (pH 7.4) containing an NADPH regenerating system (including 1.3 mM NADP, 3.3 mM glucose 6-phosphate,3.3 mM MgCl2, and 1.0 U/mL glucose 6-phosphate dehydrogenase). Probe CYP3A4 substrates (midazolam at 3 μM and testosterone at 50 μM), were incubated for 10 and 30 min, respectively, with increasing concentrations of GM, MGM or CGM (concentration range: 1 - 30 μM). The reaction was stopped by adding acetonitrile to precipitate the proteins. The incubation mixtures were then centrifuged for 5 min at 10,000 × g, and an aliquot of the supernatant was analyzed using high-performance liquid chromatography coupled to mass spectrometry for the assessment of 1’-hydroxymidazolam and 6β-hydroxytestosterone metabolite formation.
Background: Liver microsomes are vesicles of endoplasmic reticulum, rich in cytochrome P450 enzymes.

Another data set can be described thus: physchem. Type of data set: physicochemical. The following applies: aqueous buffer; PBS pH 7.4; read-out: Solubility: PBS@pH 7.4.
A short description of a further data set: in vitro. The format is in vitro ADME. The following applies: human, Caco-2; read-out: Permeability in Caco2 cells (Papp). (Passage across Caco-2 layers is used to estimate intestinal permeability.)
A short description of the next data set: in vivo. The following applies: male, Swiss, mouse, po.
The mark [7] stands for this setting: non-methylated ribosome, read-out: IC50 ribosome.
Setting [8] is: methylated ribosome, read-out: IC50 methylated ribosome.
Setting [9] is: read-out: Inhibition of Mtb translation (IC50 μM).

In brackets after ≈: the same amount, converted by molar mass. Like-named read-outs stand apart in the source and are kept apart here.

T1 sequence (P08684 whole entry): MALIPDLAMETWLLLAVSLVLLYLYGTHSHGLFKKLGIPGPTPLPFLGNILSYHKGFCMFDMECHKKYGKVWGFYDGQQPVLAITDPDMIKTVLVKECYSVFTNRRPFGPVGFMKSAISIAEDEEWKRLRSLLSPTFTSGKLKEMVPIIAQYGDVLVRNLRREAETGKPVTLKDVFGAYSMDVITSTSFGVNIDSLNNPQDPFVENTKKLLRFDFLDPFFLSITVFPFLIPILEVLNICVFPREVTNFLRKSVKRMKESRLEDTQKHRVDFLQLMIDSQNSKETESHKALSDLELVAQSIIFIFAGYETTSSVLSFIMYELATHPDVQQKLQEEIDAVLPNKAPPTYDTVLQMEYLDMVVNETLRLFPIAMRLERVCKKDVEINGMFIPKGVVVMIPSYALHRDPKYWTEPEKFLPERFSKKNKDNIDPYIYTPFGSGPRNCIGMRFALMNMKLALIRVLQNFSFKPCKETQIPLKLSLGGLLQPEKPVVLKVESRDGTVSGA

Consider `CC[C@H]1OC(=O)[C@H](C)[C@@H](O[C@H]2C[C@@](C)(OC)[C@@H](O)[C@H](C)O2)[C@H](C)[C@@H](O[C@@H]2O[C@H](C)C[C@H](N(C)C)[C@H]2O)[C@](C)(O)C[C@@H](C)CN(C)[C@H](C)[C@@H](O)[C@]1(C)O` [Azithromycin, reference compound], for which the results for the IC50 with Mtb ribosome (setting [7]) and with Mtb methylated ribosome (setting [8]) were 2.91 µM and more than 100 µM, respectively.

For `COc1nc2ccc(Br)cc2cc1[C@@H](c1ccccc1)[C@@](O)(CCN(C)C)c1cccc2ccccc12` [BDQ, Bedaquiline], in the data set with Mtb H37Rv [1], the “Mean ± SD lung CFU counts, Week 4” value was 2.96 ± 0.19.

With `CCC[C@@H]1C[C@@H](C(=O)N[C@@H]([C@H]2O[C@H](SC)[C@H](O)[C@@H](O)[C@H]2O)[C@H](C)Cl)N(C)C1` [Clindamycin, reference compound], the IC50 with Mtb ribosome (setting [7]) came out at 0.08 µM; in the data set with Mtb methylated ribosome (setting [8]), 42.3 µM.

For `CC[C@H]1OC(=O)[C@H](C)[C@@H](O[C@H]2C[C@@](C)(OC)[C@@H](O)[C@H](C)O2)[C@H](C)[C@@H](O[C@@H]2O[C@H](C)C[C@H](N(C)C)[C@H]2O)[C@](C)(O)C[C@@H](C)C(=O)[C@H](C)[C@@H](O)[C@]1(C)O` [Erythromycin, reference compound], the IC50 with Mtb ribosome (setting [7]) was found to be 0.671 µM; in the data set with Mtb methylated ribosome (setting [8]), 140 µM. Also, in the data set with Mtb H37Rv [2], the MIC is 128 µM (≈ 93.9 µg/mL).

Turning to `NNC(=O)c1ccncc1` [Isoniazid, reference compound], the “Growth inhibition (MIC80)” value in the data set on M. bovis BCG Pasteur is 0.40 µM. Moreover, in the data set on M. bovis BCG Pasteur (Mycobacterium tuberculosis variant bovis BCG, BCG, read-out: Growth inhibition (MIC80)), the MIC80 amounted to 0.34 µM (≈ 0.0466 µg/mL).

Turning to `CC(=O)NC[C@H]1CN(c2ccc(N3CCOCC3)c(F)c2)C(=O)O1` [Linezolid], the “Mean ± SD lung CFU counts, Week 4” value with Mtb H37Rv [1] amounted to 6.86 ± 0.08. This compound returned an MIC80 in the data set with Mtb H37Rv [3] of 1 µM (≈ 0.337 µg/mL).

Turning to `O=[N+]([O-])c1cn2c(n1)OC[C@@H](OCc1ccc(OC(F)(F)F)cc1)C2` [Pa, Pretomanid], in the data set with Mtb H37Rv [1], the “Mean ± SD lung CFU counts, Week 4” value is 5.83 ± 0.12.

As a reminder, the solubility is how much of the substance goes into solution per volume. The term Papp denotes the rate of passage across a membrane or cell layer, normalised by area and donor concentration. In general, bioavailability refers to dose-corrected exposure relative to a reference, in per cent. A low value points to poor availability. For `COC1C(OCC(C)C2OC(=O)C(C)C(OC3CC(C)(O)C(O)C(C)O3)C(C)C(OC3OC(C)CC(=O)C3O)C(C)CC(C)(O)C(=O)C(C)C(OC(=O)CC(C)C)C2C)OC(C)C(O)C1OC` [SEQ-503, (3S,4S,5R,7S,9S,10S,11R,12S,13R)-12-[(4,5-dihydroxy-4,6-dimethyltetrahydro-2H-pyran2-yl)oxy]-7-hydroxy-2-{1-[(5-hydroxy-3,4-dimethoxy-6-methyltetrahydro-2H-pyran-2-yl)oxy]propan-2-yl}-10-[(3-hydroxy-6-methyl-4-oxotetrahydro-2H-pyran-2-yl)oxy]-3,5,7,9,11,13-hexamethyl-6,14-dioxooxacyclotetradecan-4-yl) 3-methylbutanoate], the IC50 in the data set with Mtb ribosome (setting [9]) is 0.021 µM; in the data set with Mtb methylated ribosome (read-out: Translation inhibition of Mtb methylated ribosome (IC50 μM)), 0.022 µM; at CYP3A4, more than 10000 nM. Also, the results for the MIC (with Mtb H37Rv [2]; in [4]) were 1.4 µM (≈ 1.35 µg/mL) and 2.5 µM (≈ 2.41 µg/mL), respectively. In addition, the “Metabolic stability in human liver microsomes (% metabolized compound after 20 min)” value in [5] (20 min incubation) was 67%. The “Metabolic stability in human liver microsomes (% metabolized compound after 20 min), (K)” value in data set [5] (in presence of ketoconazole CYP3A inhibitor (K)) is 4(K) %. Besides, the “Metabolic stability in human liver microsomes (% metabolized compound after 20 min), (Q)” value in data set [5] (in presence of quinidine CYP2D6 inhibitor (Q)) is listed as “/41(Q) %”. Also, the “Metabolic stability in mouse liver microsomes (% metabolized compound after 20 min)” value in data set [6] was 0/ND %. Further, the solubility in the data set “physchem” amounted to 522 µg/mL (≈ 542 µM). In “in vitro”, the Papp is 0.07 ×10⁻⁶ cm/s. The compound further came in with a bioavailability in the data set “in vivo” of 22%.

Take `CON=C1C[C@@H](C)O[C@@H](O[C@@H]2[C@@H](C)[C@H](O[C@H]3C[C@@](C)(O)[C@@H](O)[C@H](C)O3)[C@@H](C)C(=O)O[C@H](C(C)CO[C@@H]3O[C@H](C)[C@@H](O)[C@@H](OC)[C@H]3OC)[C@H](C)[C@@H](OC(=O)CC(C)C)[C@@H](C)C(=O)[C@@](C)(OC(=O)NCCn3c([N+](=O)[O-])cnc3C)C[C@@H]2C)[C@@H]1O` (stereo partly drawn) [SEQ-569]: the IC50 with Mtb ribosome (setting [9]) is 0.054 µM. For the same compound, in the data set with Mtb H37Rv [2], the MIC was found to be 0.57 µM (≈ 0.677 µg/mL).

Regarding `CO/N=C1\C[C@@H](C)O[C@@H](O[C@@H]2[C@@H](C)[C@H](O[C@H]3C[C@@](C)(O)[C@@H](O)[C@H](C)O3)[C@@H](C)C(=O)O[C@H]([C@@H](C)CO[C@@H]3O[C@H](C)[C@@H](O)[C@@H](OC)[C@H]3OC)[C@H](C)[C@@H](OC(=O)CC(C)C)[C@@H](C)C(=O)[C@@](C)(OC(=O)NCCNS(=O)(=O)c3ccccc3[N+](=O)[O-])C[C@@H]2C)[C@@H]1O` [SEQ-977], the IC50 in the data set with Mtb ribosome (setting [9]) turned out to be 0.034 µM. Also, the MIC in the data set on Mtb H37Rv [2] came to 0.13 µM (≈ 0.164 µg/mL).

Regarding `CC[C@H]1OC(=O)C[C@@H](O)[C@H](C)[C@@H](O[C@@H]2O[C@H](C)[C@@H](O[C@H]3C[C@@](C)(O)[C@@H](O)[C@H](C)O3)[C@H](N(C)C)[C@H]2O)[C@@H](CC=O)C[C@@H](C)C(=O)/C=C/C(C)=C/[C@@H]1CO[C@@H]1O[C@H](C)[C@@H](O)[C@@H](OC)[C@H]1OC` [Tylosin, reference compound], the IC50 was 0.0892 µM in the data set on Mtb ribosome (setting [7]) and 0.377 µM in the data set on Mtb methylated ribosome (setting [8]).

With `NC(=O)c1cnccn1` [Z, Pyrazinamide], in the data set with Mtb H37Rv [1], the “Mean ± SD lung CFU counts, Week 4” value stood at 5.99 ± 0.19.

Turning to `CC[C@H]1OC(=O)[C@H](C)[C@@H](O[C@H]2C[C@@](C)(OC)[C@@H](O)[C@H](C)O2)[C@H](C)[C@@H](O[C@@H]2O[C@H](C)C[C@H](N(C)C)[C@H]2O)[C@](C)(O)C[C@@H](C)/C(=N\OCOCCOC)[C@H](C)[C@@H](O)[C@]1(C)O` [roxithromycin, reference compound], in the data set on Mtb H37Rv [2], the MIC was 32 µM (≈ 26.8 µg/mL).
